Assay results as given in patent US20070208026A1, “N-Containing Heteroaromatic Compounds As Modulators Of Ppars And Methods Of Treating Metabolic Disorders” (priority 2003, published 2007).

How the values were obtained:
Test in all cases: cell-based human PPAR-GAL4 chimera luciferase reporter assay in CV-1 cells
hPPAR γ = target: T1, hPPAR γ (Homo sapiens, UniProt P37231); conditions: PPAR LBD-GAL4 chimera, 24 hours treatment
T1 construct: expressed in transfected cells; host or cells: CV-1 cells
T1 sequence (P37231 238-503 limits assumed): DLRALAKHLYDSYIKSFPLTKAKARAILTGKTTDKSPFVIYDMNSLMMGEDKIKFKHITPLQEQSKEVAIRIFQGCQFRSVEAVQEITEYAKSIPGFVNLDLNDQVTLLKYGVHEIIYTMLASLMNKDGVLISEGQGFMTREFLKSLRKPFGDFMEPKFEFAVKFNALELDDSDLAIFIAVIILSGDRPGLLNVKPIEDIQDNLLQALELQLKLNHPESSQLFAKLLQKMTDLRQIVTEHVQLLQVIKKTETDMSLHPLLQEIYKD
Method: (§1) The compounds were evaluated in a cell-based assay to determine their human PPAR activity (See Tables 2 and 3). The plasmids for human PPAR-GAL4 chimeras were prepared by fusing amplified cDNAs encoding the LBDs of PPARs to the C-terminal end of the yeast GAL4 DNA binding domain. CV-1 cells were grown and transiently tranfected with PerFectin (GTS, San Diego, Calif.) according to the manufacturer's protocol along with a luciferase reporter. Eight hours after transfection, 50 μl of cells were replated into 384 well plates ([…]). Sixteen hours after replating, cells were treated with either compounds or 1% DMSO for 24 hours. Luciferase activity was then assayed with Britelite (Perkin Elmer) following the manufacturer's protocol and measured with either the Perkin Elmer Viewlux or Molecular Devices Acquest.

hPPAR α = target: T2, hPPAR α (Homo sapiens, UniProt Q07869); conditions: PPAR LBD-GAL4 chimera, 24 hours treatment; for EC50: read-out: hPPAP α (EC50)
T2 construct: expressed in transfected cells; host or cells: CV-1 cells
T2 sequence (Q07869 239-466 limits assumed): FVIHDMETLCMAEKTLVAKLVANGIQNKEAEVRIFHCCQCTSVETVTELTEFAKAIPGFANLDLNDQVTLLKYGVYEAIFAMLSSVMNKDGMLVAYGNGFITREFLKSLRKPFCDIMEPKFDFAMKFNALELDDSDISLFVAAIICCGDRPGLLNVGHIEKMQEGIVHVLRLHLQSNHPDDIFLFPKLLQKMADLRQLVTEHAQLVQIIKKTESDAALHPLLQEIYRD
Method: as §1

hPPAR δ = target: T3, hPPAR δ (Homo sapiens, UniProt Q03181); conditions: PPAR LBD-GAL4 chimera, 24 hours treatment
T3 construct: expressed in transfected cells; host or cells: CV-1 cells
T3 sequence (Q03181 211-439 limits assumed): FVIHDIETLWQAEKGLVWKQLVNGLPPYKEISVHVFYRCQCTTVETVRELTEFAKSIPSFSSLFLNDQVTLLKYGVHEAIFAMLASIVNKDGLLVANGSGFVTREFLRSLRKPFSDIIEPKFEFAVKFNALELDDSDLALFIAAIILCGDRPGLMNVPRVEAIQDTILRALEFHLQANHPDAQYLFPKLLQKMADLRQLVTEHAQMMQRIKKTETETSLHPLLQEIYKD
Method: as §1

EC50 (hPPAR γ) | EC50 (hPPAR α) | EC50 (hPPAR δ) | hPPAR δ (EC50) (hPPAR δ) | hPPAP α (EC50) (hPPAR α) | SMILES
1 to 100 µM | > 100 µM | > 100 µM |  |  | CCc1cnc(N(CCCOc2cccc3ccc(C(=O)O)nc23)Cc2ccc(C(F)(F)F)cc2C(F)(F)F)nc1
< 1 µM | > 100 µM | 1 to 100 µM |  |  | CCc1cnc(N(CCCOc2ccc3[nH]cc(CC(=O)O)c3c2)Cc2ccc(C(F)(F)F)cc2C(F)(F)F)nc1
< 1 µM | 1 to 100 µM |  | B/C |  | CCc1cnc(N(CCCOc2ccc3c(c2)c(CC(=O)O)cn3C)Cc2ccc(C(F)(F)F)cc2C(F)(F)F)nc1
< 1 µM | > 100 µM | 1 to 100 µM |  |  | O=C(O)Cc1c[nH]c2ccc(OCCCN(Cc3ccc(C(F)(F)F)cc3C(F)(F)F)c3ccccn3)cc12
< 1 µM | > 100 µM | > 100 µM |  |  | O=C(O)Cc1c[nH]c2ccc(OCCCN(Cc3ccc(C(F)(F)F)cc3C(F)(F)F)c3nc4ccccc4s3)cc12
< 1 µM | > 100 µM | > 100 µM |  |  | CCc1cnc(N(CCCOc2nc3ccccc3nc2C(=O)O)Cc2ccc(C(F)(F)F)cc2C(F)(F)F)nc1
< 1 µM | > 100 µM | > 100 µM |  |  | O=C(O)c1nc2ccccc2nc1OCCCN(Cc1ccc(C(F)(F)F)cc1C(F)(F)F)c1ccccn1
< 1 µM |  | 1 to 100 µM |  | B/C | CCc1cnc(N(CCCOc2cncc(C(=O)O)c2)Cc2ccc(C(F)(F)F)cc2C(F)(F)F)nc1
< 1 µM | > 100 µM | > 100 µM |  |  | CCc1cnc(N(CCCOc2ncc(C(=O)O)cc2Cl)Cc2ccc(C(F)(F)F)cc2C(F)(F)F)nc1
1 to 100 µM | > 100 µM | > 100 µM |  |  | CCCCN(CCCOc1cncc(C(=O)O)c1)c1ccccn1
< 1 µM | 1 to 100 µM | > 100 µM |  |  | O=C(O)c1cncc(OCCCN(Cc2ccc(C(F)(F)F)cc2)c2nc3ccccc3s2)c1
1 to 100 µM | > 100 µM | > 100 µM |  |  | O=C(O)c1cncc(OCCCN(Cc2ccc(C(F)(F)F)cc2C(F)(F)F)c2nc3ccccc3o2)c1
< 1 µM | 1 to 100 µM | 1 to 100 µM |  |  | O=C(O)c1cncc(OCCCN(Cc2ccc(C(F)(F)F)cc2C(F)(F)F)c2ccccn2)c1
1 to 100 µM | > 100 µM | > 100 µM |  |  | O=C(O)c1cncc(OCCCN(Cc2ccc(C(F)(F)F)cc2C(F)(F)F)c2nc3ccccc3s2)c1
< 1 µM |  | > 100 µM |  | A/B | CCc1cnc(N(CCCOc2cccc(C(=O)O)n2)Cc2ccc(C(F)(F)F)cc2C(F)(F)F)nc1
> 100 µM | < 1 µM | > 100 µM |  |  | O=C(O)c1cccc(OCCCN(Cc2ccc(C(F)(F)F)cc2C(F)(F)F)c2nc3ccccc3o2)n1
< 1 µM | 1 to 100 µM | > 100 µM |  |  | O=C(O)c1cccc(OCCCN(Cc2ccc(C(F)(F)F)cc2C(F)(F)F)c2ccccn2)n1
< 1 µM | < 1 µM | > 100 µM |  |  | O=C(O)c1cccc(OCCCN(Cc2ccc(C(F)(F)F)cc2C(F)(F)F)c2nc3ccccc3s2)n1

Continued, compound first:

SMILES | EC50 (hPPAR γ) | EC50 (hPPAR α) | EC50 (hPPAR δ) | hPPAR δ (EC50) (hPPAR δ) | hPPAP α (EC50) (hPPAR α)
CCCCN(CCCOc1ccc2[nH]cc(CC(=O)O)c2c1)c1ncc(CC)cn1 | 1 to 100 µM | > 100 µM | > 100 µM |  | 
CCCCN(CCCOc1ccc2[nH]cc(CC(=O)O)c2c1)c1ccccn1 | 1 to 100 µM | > 100 µM | > 100 µM |  | 
CCCCN(CCCOc1ccc2[nH]cc(CC(=O)O)c2c1)c1nc2ccccc2s1 | 1 to 100 µM | > 100 µM | 1 to 100 µM |  | 
CCCCN(CCCOc1ccc2[nH]cc(CC(=O)O)c2c1)c1nc2ccccc2o1 | 1 to 100 µM | > 100 µM | 1 to 100 µM |  | 
O=C(O)Cc1c[nH]c2ccc(OCCCN(Cc3ccc(C(F)(F)F)cc3C(F)(F)F)c3nc4ccccc4o3)cc12 | < 1 µM | > 100 µM | < 1 µM |  | 
CCCCN(CCCOc1nc2ccccc2nc1C(=O)O)c1ncc(CC)cn1 | 1 to 100 µM | > 100 µM | 1 to 100 µM |  | 
CCCCN(CCCOc1nc2ccccc2nc1C(=O)O)c1ccccn1 | 1 to 100 µM | > 100 µM | > 100 µM |  | 
CCCCN(CCCOc1nc2ccccc2nc1C(=O)O)c1nc2ccccc2s1 | 1 to 100 µM | > 100 µM | > 100 µM |  | 
CCCCN(CCCOc1nc2ccccc2nc1C(=O)O)c1nc2ccccc2o1 | 1 to 100 µM | > 100 µM | > 100 µM |  | 
O=C(O)c1nc2ccccc2nc1OCCCN(Cc1ccc(C(F)(F)F)cc1)c1nc2ccccc2s1 | > 100 µM | > 100 µM | > 100 µM |  | 
O=C(O)c1nc2ccccc2nc1OCCCN(Cc1ccc(C(F)(F)F)cc1C(F)(F)F)c1nc2ccccc2o1 | < 1 µM | > 100 µM | > 100 µM |  | 
O=C(O)c1nc2ccccc2nc1OCCCN(Cc1ccc(C(F)(F)F)cc1C(F)(F)F)c1nc2ccccc2s1 | < 1 µM | > 100 µM | > 100 µM |  | 
CCCCN(CCCOc1cncc(C(=O)O)c1)c1ncc(CC)cn1 | < 1 µM | > 100 µM | > 100 µM |  | 
CCCCN(CCCOc1cncc(C(=O)O)c1)c1nc2ccccc2s1 | < 1 µM | > 100 µM | > 100 µM |  | 
CCCCN(CCCOc1cncc(C(=O)O)c1)c1nc2ccccc2o1 | 1 to 100 µM | > 100 µM | > 100 µM |  | 
CCCCN(CCCOc1cccc(C(=O)O)n1)c1ncc(CC)cn1 | < 1 µM | 1 to 100 µM | 1 to 100 µM |  | 
CCCCN(CCCOc1cccc(C(=O)O)n1)c1ccccn1 | 1 to 100 µM | > 100 µM | > 100 µM |  | 
CCCCN(CCCOc1cccc(C(=O)O)n1)c1nc2ccccc2s1 | 1 to 100 µM | > 100 µM | > 100 µM |  | 
O=C(O)c1cccc(OCCCN(Cc2ccc(C(F)(F)F)cc2)c2nc3ccccc3s2)n1 | < 1 µM | > 100 µM | > 100 µM |  | 
CCCCN(CCCOc1cccc(C(=O)O)n1)c1nc2ccccc2o1 | < 1 µM | 1 to 100 µM | > 100 µM |  | 
